Assay results from patent US7470831B1, “Genetic method” (Syngenta Limited, priority 1997, dated 2008).
Like-named read-outs stand apart in the source and are kept apart here.

Assays:
[1] = system: palcA:cyInv transgenic tobacco plants
Protocol: (§1) Phenotypic modification started 72 hours after ethanol induction and was strongest after 96 hours. The final phenotype was identical to the previously published results using the 35S CaMV promoter to drive the expression of cytosolic yeast invertase (Sonnewald et al Plant J. 1, 95 (1991)). Development of this phenotype followed maximal invertase activity and was most severe in transformant 28. Photosynthesis fluorescence measurements were used to monitor changes of quantum yield (Schreiber et al, in Ecophysiology of Photosynthesis Vol. 100, Schuize and Caldwell, Eds (Springer Verlag, Berlin, 1994), pp 49-70.) of all three transformant lines in vivo throughout the induction experiment.

[2] = system: palc:Inv transgenic tobacco plants; settings: 1% ethanol root drench
Protocol: as §1
Fluorescence measurements were used to monitor changes in photosynthetic parameters during induction of invertase activity using the PAM-2000 instrument (Walz, Effeltrich, Germany). Quantum use efficiency (quantum yield) of photosystem II (PSII) was measured by applying a saturating light beam on light adapted leaves of wildtype and transformed plants (palc:Inv). Before each measurement, it was verified that the saturating pulse had reached a plateau to allow an accurate determination of Fm′. The intensities of the measuring and saturating light beam were adjusted to reach a FO′ value close to 0.4. Measurements were conducted on different leaves having reached 8% (A), 15% (B), or 45% (C) of maximal leaf area of five plants of each genotype at the indicated time points.
Quantum yield of three succeeding light adapted leaves (leaf A-C) starting from the top of the plant was measured using a PAM-2000 instrument at the time points indicated. Values given are the means +−SE (n=5). For plants of line 28, quantum yield was reduced by 23% (p<0.05) and 27% (p<0.05) and for plants of line 10 only by 6% and 17% (p<0.05), respectively.

[3] = system: alcA promoter (p35S:alcR / palcA:CAT transgenic tobacco line)
Protocol: (§2) A selected seedling was grown to maturity to produce a homozygous line. Seedlings of this plant were tested for CAT protein in comparison to seedlings of a similar plant transformed with a construct which expressed CAT from the constitutive high activity CaMV 35S promoter (Table 1).
(§3) Individual seedlings from a homozygous transgenic tobacco line carrying the CAT gene expressed from the alcA promoter were compared with those from a similar line transformed with p35S:CAT. […] Induction was achieved by the addition of 0.1% ethanol to the growth medium for 120 h. The induction medium was replaced at 58 h to maintain ethanol concentrations. One leaf was taken prior to induction, and one leaf after induction. CAT ELISA (Boehringer Mannheim) was performed on crude cell extracts; total protein was determined as described previously (Bradford, Anal Biochem 72: 243 (1976). All values are ng CAT protein per mg total protein, and represent the mean of nine individual replicates±one standard deviation.

[4] = system: CaMV 35S promoter (p35S:CAT transgenic tobacco line)
Protocol: as §2, §3

CCO [Ethanol, ethanol]
invertase activity in transgenic plants at two ethanol concentrations ([1]; 5% vs 1% ethanol (FIG. 3)): dose-dependent | time after first addition of ethanol at which elevated invertase activity was measurable ([1]; lines 10, 27 and 28, root drench 100 ml 1% ethanol (v/v)): 6 h | time after initial root drenching at which invertase activity reached a plateau ([1]; lines 10 and 27, root drench 100 ml 1% ethanol, repeated at 48 and 72 hours): 96 h | start of phenotypic modification after ethanol induction ([1]; palcA:cyInv lines, strongest after 96 hours): 72 h | reduction of quantum yield ([2]; line 10, leaf B (15% of maximal leaf area)): 6% | reduction of quantum yield ([2]; line 10, leaf C (45% of maximal leaf area), p<0.05): 17% | reduction of quantum yield ([2]; line 28, leaf B (15% of maximal leaf area), p<0.05): 23% | reduction of quantum yield ([2]; line 28, leaf C (45% of maximal leaf area), p<0.05): 27% | CAT activity of induced palc:CAT seedlings relative to ethanol-treated p35S:CAT seedlings ([3]; ethanol-induced palc:CAT vs ethanol-treated p35S:CAT): 55% | CAT activity of induced palc:CAT seedlings relative to untreated p35S:CAT seedlings ([3]; ethanol-induced palc:CAT vs untreated p35S:CAT): 39% | CAT protein level ([3]; homozygous palcA:CAT seedlings, 0.1% ethanol in growth medium for 120 h, mean of nine replicates ± one SD): 30.37 ± 3.91 ng CAT protein per mg total protein | reduction in CAT protein levels relative to the untreated control ([4]; ethanol-treated p35S:CAT seedlings): 29% | CAT protein level ([4]; p35S:CAT seedlings, 0.1% ethanol in growth medium for 120 h, mean of nine replicates ± one SD): 55.46 ± 10.85 ng CAT protein per mg total protein
